Entries after “also recorded” stand apart in the source; their conditions may differ.
What was measured:
HEK293 = experiment: Cytotoxicity assay (CellTiter-Glo), HEK293; type: cell-based, human; details: 48 hours incubation
Protocol: Human liver hepatocellular carcinoma (HEPG2) and human embryonic kidney 293 (HEK293) cell lines were purchased (ATCC) and cultured in 75 cm2 flasks (CellStar). Cells were grown in DMEM/High Glucose (Hyclone, #SH3024301) media to which non-essential amino acids (Hyclone, #SH30238.01), 10 mM HEPES (Hyclone, #SH302237.01), 5×106 units of penicillin and streptomycin (Hyclone, #SV30010), and 10% of heat inactivated fetal bovine serum (Gibco, #10082147) were added. Cells were harvested using 0.05% Trypsin (Hyclone, #SH3023601), washed with PBS, and dispensed into sterile white, optical bottom 384-well plates (NUNC, #142762). After three hours, small molecule solutions were transferred with a Tecan Freedom EVO liquid handling system equipped with a 100 nL pin tool (V&P Scientific). The controls (E)-10-(bromotriphenylphosphoranyl)decyl 4-(4-(tert-butyl)phenyl)-4-oxobut-2-enoate (400 μM in DMSO, positive control) and DMSO (negative control). The cells were incubated for 48 hours followed by the addition of CellTiter-Glo™, a luminescence-based cell viability assay (Promega, Madison, Wis.). All luminescence readings were performed on a Tecan Infinite M1000 plate reader. The assay was carried out in quadruplet with three independent runs. The data was normalized to the controls and analyzed by nonlinear regression (GraphPad Prism).

C57B1/6 male mice = experiment: Forced swim test (FST); type: in vivo, mouse; details: vs vehicle
Protocol: C57B1/6 male mice were ordered from Jackson Laboratories at 8 weeks-old and were group housed (4-5 mice/cage) under normal housing conditions (12 h light ON cycle starting at 7 am/water and food ad libitum) for one week. During this week, animals were handled in order to habituate them to the experimenter and to reduce their anxiety-like response during behavioral testing.
All drugs were diluted in a vehicle solution containing 85% H2O, 14% propylene glycol (Sigma Aldrich) and 1% Tween 80 (Sigma Aldrich). Working solutions were prepared at a concentration of 20 mg/mL and administered i.p. adjusted to the body weight of each animal. Doses used were either 1, 5 or 10 mg/kg. For all FST experiments, animals were injected i.p. with vehicle or αPAM.
Mice were tested in the forced swim test (FST) (measure of despair-like behavior used for the assessment of antidepressant efficacy). Animals were sub-chronically injected three times (24, 20 and 1 hour before testing) as per standard methods in the field for testing potential antidepressant compounds.
One hour after the last injection, mice were placed in an inescapable transparent tank filled with water (25 cm, 25-26° C.), where they are unable to touch the bottom and unable to jump out of the tank. Animal were recorded for a period of 6 minutes and a manual count of the immobile time in the tank was measured for the 2-6 minutes period by an experimenter blinded to the mouse treatment history. Immobility is defined as the minimum amount of movement to stay afloat. Compounds that reduced immobility in the FST are considered to have potential antidepressant actions.

[1] = target: T1, alpha 5 subunit GABAA receptor (Rattus norvegicus, UniProt P18508+P19969); experiment: Electrophysiology, whole-cell patch clamp in transfected HEK-293T cells; type: cell-based; details: for percent of response to GABA: 1 μM compound, HEK-293T cells transfected with alpha 5 subunit; for relative size of response to GABA among the four compounds: 1 μM, alpha 5, FIG. 26
T1 construct: Full-length cDNAs for GABAA receptor subtypes; expressed in transfected cells; host or cells: HEK-293T (GenHunter, Nashville, Tenn.), transient calcium phosphate transfection
T1 sequence (P19969 32-464 limits assumed): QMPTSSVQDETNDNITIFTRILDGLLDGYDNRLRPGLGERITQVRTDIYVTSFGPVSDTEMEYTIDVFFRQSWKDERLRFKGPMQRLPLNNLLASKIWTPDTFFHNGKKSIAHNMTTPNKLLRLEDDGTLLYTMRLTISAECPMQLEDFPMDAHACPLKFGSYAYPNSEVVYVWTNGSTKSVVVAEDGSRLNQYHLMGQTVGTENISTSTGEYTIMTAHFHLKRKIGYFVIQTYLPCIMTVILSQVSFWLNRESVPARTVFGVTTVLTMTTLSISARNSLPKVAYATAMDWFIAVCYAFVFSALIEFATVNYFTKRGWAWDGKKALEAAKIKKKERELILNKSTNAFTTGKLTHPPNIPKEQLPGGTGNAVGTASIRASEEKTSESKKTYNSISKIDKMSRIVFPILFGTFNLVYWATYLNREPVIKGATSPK
T1 sequence (P63079 26-473 partner): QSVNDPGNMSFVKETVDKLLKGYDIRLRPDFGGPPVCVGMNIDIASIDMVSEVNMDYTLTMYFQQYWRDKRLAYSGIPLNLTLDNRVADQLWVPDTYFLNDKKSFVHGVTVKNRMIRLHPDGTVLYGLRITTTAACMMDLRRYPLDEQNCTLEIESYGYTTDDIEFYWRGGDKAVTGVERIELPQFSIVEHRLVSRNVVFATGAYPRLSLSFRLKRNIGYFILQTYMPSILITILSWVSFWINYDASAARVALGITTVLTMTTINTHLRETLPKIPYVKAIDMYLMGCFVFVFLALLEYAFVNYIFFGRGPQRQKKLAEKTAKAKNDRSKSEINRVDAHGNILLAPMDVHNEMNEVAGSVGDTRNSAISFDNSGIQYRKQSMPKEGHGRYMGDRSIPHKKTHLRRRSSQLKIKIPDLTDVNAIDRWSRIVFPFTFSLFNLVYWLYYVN
T1 sequence (P18508 39-466): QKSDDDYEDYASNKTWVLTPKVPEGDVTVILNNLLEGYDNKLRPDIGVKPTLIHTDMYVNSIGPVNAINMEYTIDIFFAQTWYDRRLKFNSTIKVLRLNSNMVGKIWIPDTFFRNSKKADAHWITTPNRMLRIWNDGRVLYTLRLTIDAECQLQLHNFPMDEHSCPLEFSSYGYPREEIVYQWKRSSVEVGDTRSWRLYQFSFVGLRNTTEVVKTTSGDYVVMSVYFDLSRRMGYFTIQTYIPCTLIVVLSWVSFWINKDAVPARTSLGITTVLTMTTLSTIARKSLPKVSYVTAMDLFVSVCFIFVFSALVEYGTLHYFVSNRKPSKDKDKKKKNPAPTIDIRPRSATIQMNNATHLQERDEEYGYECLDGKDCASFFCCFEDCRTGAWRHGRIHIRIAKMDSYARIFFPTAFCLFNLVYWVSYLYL
Excerpt: Transfection of Mammalian Cells and Electrophysiological Recordings. Full-length cDNAs for GABAA receptor subtypes (generously provided by Dr. Robert Macdonald, Vanderbilt University and Dr. David Weiss, University of Texas Health Science Center, San Antonio, Tex.) in mammalian expression vectors were transfected into the human embryonic kidney cell line HEK-293T (GenHunter, Nashville, Tenn.) (Chestnut et al, 1996, J. Immunol. Methods 193, 17-27). All subtypes were rat clones except for α2, which was a human clone. Cells were maintained in Dulbecco's modified Eagle's medium (DMEM) plus 10% fetal bovine serum, 100 IU/mL penicillin, and 100 μg/mL streptomycin.
HEK-293T cells were transiently transfected using calcium phosphate precipitation. Plasmids encoding GABAA receptor subtype cDNAs were added to the cells in 1:1:1 ratios (α:β:γ) of 2 μg each.31 For identification of positively transfected cells, 1 μg of the plasmid pHook-1 (Invitrogen Life Technologies, Grand Island N.Y.) containing cDNA encoding the surface antibody sFv was also transfected into the cells.11 Following a 4-6 h incubation at 3% CO2, the cells were treated with a 15% glycerol solution in BBS buffer (50 mM BES(N,N-bis[2-hydroxyethyl]-2-aminoethanesulfonic acid), 280 mM NaCl, 1.5 mM Na2HPO4) for 30 s. The selection procedure for pHook expression was performed 18-52 h later. The cells were passaged and mixed for 30-60 min with 3-5 μL of magnetic beads coated with antigen for the pHook antibody (approximately 6×105 beads).11 Bead-coated cells were isolated using a magnetic stand. The selected cells were resuspended into supplemented DMEM, plated onto glass coverslips treated with poly L-lysine and collagen, and used for recordings the next day.
Cells were patch-clamped at −50 mV in the whole-cell recording configuration. The bath solution consisted of (in mM): 142 NaCl, 8.1 KCl, 6 MgCl2, 1 CaCl2), and 10 HEPES (4-(2-hydroxyethyl)-1-piperazineethanesulfonic acid) with pH=7.4 and osmolarity adjusted to 295-305 mOsm. Recording electrodes were filled with a solution of (in mM) 153 KCl, 1 MgCl2, 5 K-EGTA (ethylene glycol-bis(β-aminoethyl ether N,N,N′N′-tetraacetate), and 10 HEPES with pH=7.4 and osmolarity adjusted to 295-305 mOsm. GABA was diluted into the bath solution from freshly made or frozen stocks in water. Compounds were dissolved in DMSO and diluted into bath solution with the highest DMSO level applied to cells of 0.01%. Patch pipettes were pulled from borosilicate glass (World Precision Instruments, Sarasota, Fla.) on a two-stage puller (Narishige, Japan) to a resistance of 5-10 MO. Solutions containing GABA or GABA+ compounds were applied to cells for 5 s. using a 3-barrelled solution delivery device controlled by a computer-driven stepper motor (SF-77B, Harvard Apparatus, Holliston, Mass., open tip exchange time of <50 ms). There was a continuous flow of external solution through the chamber. Currents were recorded with an Axon 200B (Foster City, Calif.) patch clamp amplifier.
Whole-cell currents were analyzed using the programs Clampfit (pClamp9 suite, Axon Instruments, Foster City, Calif.) and Prism (Graphpad, San Diego, Calif.). Concentration-response data was fit with a four-parameter logistic equation (current=[minimum current+(maximum current−minimum current)]/1+(10(logEC50−log[modulator])n) where n represents the Hill number. All fits were made to normalized data with current expressed as a percentage of the response to GABA alone for each cell.

[2] = 5 mg/kg i.p. 24, 20, 1 hour before testing
[3] = 10 mg/kg i.p. 24, 20, 1 hour before testing

Compound	HEK293 LD50 (HEK293)	time spent immobile in the FST (C57B1/6 male mice; [2])	percent of response to GABA [1]	relative size of response to GABA among the four compounds [1]	time spent immobile in the FST (C57B1/6 male mice; [3])
C#Cc1ccc2c(c1)C(c1ccccc1F)=N[C@@H](C)c1c(C(=O)N(C)C)ncn1-2 [GL-I-54, (S)-8-ethynyl-6-(2-fluorophenyl)-N,N,4-trimethyl-4H-benzo[f]imidazo[1,5-a][1,4]diazepine-3-carboxamide]	>400 µM	significant decrease in immobility time; also recorded: significant antidepressant-like action	–	–	–
C#Cc1ccc2c(c1)C(c1ccccc1F)=N[C@H](C)c1c(C(=O)NCC)ncn1-2 [GL-II-74, (R)—N-ethyl-8-ethynyl-6-(2-fluorophenyl)-4-methyl-4H-benzo[f]imidazo[1,5-a][1,4]diazepine-3-carboxamide]	–	significantly decreased the immobility; also recorded: significant antidepressant-like efficacy	increased in the percent of response to GABA	greatest response	significantly decreased the immobility; also recorded: significant antidepressant-like efficacy
C#Cc1ccc2c(c1)C(c1ccccc1F)=N[C@H](C)c1c(C(=O)NC3CC3)ncn1-2 [GL-II-75, (R)—N-cyclopropyl-8-ethynyl-6-(2-fluorophenyl)-4-methyl-4H-benzo[f]imidazo[1,5-a][1,4]diazepine-3-carboxamide]	–	significantly decreased the immobility; also recorded: significant antidepressant-like efficacy	increased in the percent of response to GABA	greatest response	significantly decreased the immobility; also recorded: significant antidepressant-like efficacy
C#Cc1ccc2c(c1)C(c1ccccc1F)=N[C@H](C)c1c(C(=O)N(C)C)ncn1-2 [GL-II-73, (R)-8-ethynyl-6-(2-fluorophenyl)-N,N,4-trimethyl-4H-benzo[f]imidazo[1,5-a][1,4]diazepine-3-carboxam]	>200 µM	–	increased in the percent of response to GABA	greatest response	significantly decreased the immobility; also recorded: significant antidepressant-like efficacy
C#Cc1ccc2c(c1)C(c1ccccc1F)=N[C@H](C)c1c(C(=O)NC)ncn1-2 [MP-III-022]	>100 µM	–	–	–	significant decrease in immobility time; also recorded: significant antidepressant-like action
C#Cc1ccc2c(c1)C(c1ccccc1F)=N[C@H](C)c1c(C(=O)N3CCCC3)ncn1-2 [GL-II-76, (R)-(8-ethynyl-6-(2-fluorophenyl)-4-methyl-4H-benzo[f]imidazo[1,5-a][1,4]diazepin-3-yl)(pyrrolidin-1-yl)methanone]	>100 µM	–	increased in the percent of response to GABA	–	–

Source: patent publication US10906909B2, “Treatment of cognitive and mood symptoms in neurodegenerative and neuropsychiatric disorders with ALPHA5-containing GABAA receptor agonists” (UWM Research Foundation, Inc., priority 2016, dated 2021)
